Assay results published in US9018248B2, “Fatty acid derivatives of catechins and methods of their use” (Genesis Group Inc., priority 2010, dated 2015).
Marks after values point to notes of the source that are not given here.

Tests used:
[1] = Bulk oil system, stripped corn oil, Rancimat; conditions: PF=IPsample/IPcontrol; Rancimat 100° C., 1 μmol in 3 g oil
Protocol: One milliliter of EGCG and its derivatives dissolved in ethanol (1 μmol/ml) was transferred into a reaction vessel, followed by evaporation of the solvent to dryness under a stream of nitrogen. To each vessel (an empty vessel was used as control) 3 g of stripped corn oil (devoid of endogenous antioxidants) were added. The evaluation was carried out under accelerated oxidation in a Rancimat (Metrohm Model 743, Herisau, Switzerland) conditions at 100° C. with an air flow rate of 20 l/h. Lipid oxidation in the absence and presence of test compounds was monitored by changes in electrical conductivity, arising from the formation of volatile oxidation products. The induction periods (IP, time to reach a sudden increase in oxidation rate) were recorded. […] Antioxidant activity was interpreted as protection factor (PF), which was calculated as follow. PF=IPsample/IPcontrol where, IPsample and IPcontrol represent induction periods for the oil with and without test compounds, respectively. Discussion

[2] = DPPH radical scavenging capacity by EPR; conditions: test compounds 25 μM in ethanol, EPR after 1 min
Protocol: An ORAC (Oxygen Radical Absorbance Capacity) assay was carried out using a Fluostar Optima plate reader (BMG Labtech, Durham, N.C.) equipped with an incubator and two injector pumps. A modified method for lipophilic antioxidants was followed, in which randomly methylated cyclodextrin (RMCD) was used as water solubility enhancer, as described by Huang et al, J. Agric. Food Chem., 2002, 50, 1815-1821. Trolox standards (6.25-50 μM) and samples (0.25 μM) were dissolved in acetone/water (1:1, v/v) containing 7% RMCD. Fluorescein and […] [2,2′-azobis(2-aminopropane)dihydrochloride] were used as the probe and radical generator, respectively. Twenty microliters of trolox standard or test compound solutions (7% RMCD used as a control) were added into each well of a 96-well black microplate, followed by addition of fluorescein. The plate was incubated at 37° C. for 15 min and then AAPH in buffer was injected into the wells. The conditions used were as follows: 0.3 s position delay, 8 s orbital shaking before each cycle with 4 mm width, 210 s cycle time, and 25 cycles. Fluorescence was measured at an excitation wavelength of 485 nm and emission of 520 nm. A standard curve was plotted and ORAC values for test compounds were obtained as mol of trolox equivalents (TE) per mol of test compound. (3b) Reducing Power The reducing power of EGCG and its derivatives (compounds 1a-1c) was determined according to Oyaizu (1986). One milliliter of test compounds (1 mM in 95% ethanol) was mixed with 2.5 ml of phosphate buffer solution (PBS, 0.2 M, pH 6.6) and 2.5 ml of a 1% solution of potassium ferricyanide, K3Fe(CN)6. The mixture was incubated at 50° C. for 20 min. […] The content was mixed well and the absorbance was recorded at 700 nm. Higher absorbance of the reaction mixture indicates greater reducing power. […] (3c) Metal Chelation The metal chelation capacity was measured following a procedure by Decker E. A. et al., J. Agric. […] The absorbance was measured afterwards at 562 nm. A blank without ferrozine was run for each compound, since the antioxidant-Fe^2+ complex gives a colour that might interfere with the absorbance reading. Metal chelation capacity was calculated using the following equation: % chelation=[1−(Abs.sample−Abs.blank)/Abs.control]×100 where, control was devoid of test compounds, while blank contained no ferrozine. (3d) DPPH Antioxidant activity of the lipophilic EGCG derivatives was ALSO evaluated as DPPH (1,1-diphenyl-2-picrylhydrazyl) radical scavenging capacity using EGCG as the reference. DPPH scavenging capacity of test compounds was determined by EPR (electron paramagnetic resonance) according to Madhujith and Shahidi (16) with slight modifications. […] The spectrum was recorded after 1 min. […]

[3] = TBARS formation in cooked pork model system; conditions: 80 μmol/kg meat, stored at 4° C.
Protocol: Fresh ground pork (40 g) was mixed with deionized water (10 g) in a Mason jar. Samples and reference antioxidant compound (BHA) dissolved in ethanol were added to meat at a level of 80 μmol/kg. A control without any antioxidant was also prepared. The content was thoroughly mixed and cooked at 80° C. in a thermostated water bath for 40 min with intermittent stirring. The cooked meat was cooled to room temperature and homogenized with a Polytron PT 3000 (Brinkmann Instruments, Rexdale, ON) homogenizer. The homogenate was then transferred into plastic bags and stored at 4° C. for 14 days. […].
TBARS values were determined as described by Shahidi and Hong (Shahidi, F. and Hong, C. Evaluation of malonaldehyde as a marker of oxidative rancidity in meat products. J. Food Biochem. 15, 97-105, 1991).
A series of TMP (1,1,3,3-tetramethoxypropane) standard solutions at difference concentrations was mixed with thiobarbituric acid (TBA) in screw-capped tubes and heated in a boiling water bath for 45 min. After cooling on ice, the absorbance was recorded at 532 nm and a standard curve was constructed (absorbance versus concentration). For TBARS in the cooked meat model system, 2 g of meat were mixed with 5 ml of trichloroacetic acid (TCA, 10% w/v) in a centrifuge tube, followed by addition of 5 ml of TBA reagent. The mixture was centrifuged at 3000×g for 10 min and the supernatant was filtered. The filtrate was heated in a boiling water bath for 45 min and absorbance was measured at 532 nm after cooling to room temperature. TBARS values in meat samples were obtained using the standard curve as μmol malonaldehyde equivalents/kg of meat. Antioxidant activity was calculated as percentage inhibition of TBARS formation by test compounds.

Compound | Protection Factor (PF) [1] | DPPH scavenging [2] | Inhibition of TBARS formation in cooked pork [3]
CCC=CCC=CCC=CCC=CCC=CCCCC(=O)Oc1cc(C(=O)OC2Cc3c(O)cc(O)cc3OC2c2cc(OC(=O)CCCC=CCC=CCC=CCC=CCC=CCC)c(O)c(OC(=O)CCCC=CCC=CCC=CCC=CCC=CCC)c2)cc(OC(=O)CCCC=CCC=CCC=CCC=CCC=CCC)c1O (stereo not drawn) [Compound 1b] | 0.82 | 4.66 mmol trolox eq./mol | 80.5 ± 0.80^bc %
O=C(O[C@@H]1Cc2c(O)cc(O)cc2O[C@@H]1c1cc(O)c(O)c(O)c1)c1cc(O)c(O)c(O)c1 [EGCG, Epigallocatechin gallate, reference compound] | 1.40 | 3.13 mmol trolox eq./mol | 71.9 ± 1.56^d %
CCC=CCC=CCC=CCC=CCC=CCC=CCCC(=O)Oc1cc(C(=O)OC2Cc3c(O)cc(O)cc3OC2c2cc(OC(=O)CCC=CCC=CCC=CCC=CCC=CCC=CCC)c(O)c(OC(=O)CCC=CCC=CCC=CCC=CCC=CCC=CCC)c2)cc(OC(=O)CCC=CCC=CCC=CCC=CCC=CCC=CCC)c1O (stereo not drawn) [Compound 1c] | 0.77 | 5.09 mmol trolox eq./mol | 78.4 ± 1.62^c %
CCCCCCCCCCCCCCCCCC(=O)Oc1cc(C(=O)OC2Cc3c(O)cc(O)cc3OC2c2cc(OC(=O)CCCCCCCCCCCCCCCCC)c(O)c(OC(=O)CCCCCCCCCCCCCCCCC)c2)cc(OC(=O)CCCCCCCCCCCCCCCCC)c1O (stereo not drawn) [Compound 1a, EGCG stearate] | 2.38 | 5.85 mmol trolox eq./mol | 86.3 ± 2.10^a %
